Assay results: ChEMBL document CHEMBL1144819, “Antitumor agents. 261. 20(S)-protopanaxadiol and 20(s)-protopanaxatriol as antiangiogenic agents and total assignment of (1)H NMR spectra” (J Nat Prod, 2008)
Values after ≈ are worked out from the molar mass of the structure shown.

Key:
HUVEC [1] = experiment: Antiproliferative activity against HUVEC cells after 72 hrs; format: functional, cell-based; settings: Homo sapiens
HUVEC [2] = experiment: Cell viability of HUVEC cells at 20 ug/ml; format: functional, Homo sapiens

Row | SMILES | EC50 (HUVEC [1]) | Activity (HUVEC [2])
1 | CC(C)=CCC[C@](C)(O)[C@H]1CC[C@]2(C)[C@@H]1[C@H](O)C[C@@H]1[C@@]3(C)CC[C@H](O)C(C)(C)[C@@H]3CC[C@]12C | 2.16 µg/mL (≈ 4.69 µM) | 16.5%
2 | CC(C)=CCC[C@](C)(O)[C@H]1CC[C@]2(C)[C@@H]1[C@H](O)C[C@@H]1[C@@]3(C)CC[C@H](O)C(C)(C)[C@@H]3[C@@H](O)C[C@]12C | 6.64 µg/mL (≈ 13.9 µM) | 16.5%
